Like-named read-outs stand apart in the source and are kept apart here.
Columns and labels:
LTC4 = test: In vivo murine zymosan peritonitis assay, LTC4 (lipoxygenase pathway); design: species or system mouse (male CD-1)
Method: The compounds of the invention are evaluated for their ability to inhibit the lipoxygenase and/or cyclooxygenase pathways of arachidonic acid metabolism in the in vivo murine zymosan peritonitis assay.
This assay is carried out as follows:
Male CD-1 mice (8 weeks old) are placed in plastic boxes in groups of six. Animals are injected with 1 ml i.p. of either 1% zymosan in pyrogen free 0.9% saline or saline (unstimulated control). Compounds are dosed orally 1 hour prior to zymosan injection. Twenty minutes after zymosan injection, the mice are asphyxiated by CO2 inhalation and the peritoneal cavity is lavaged with 2 ml ice cold Hanks Balanced Salt Solution (HBSS) without CaCl2, MgSO4 ·7H2 O and MgCL2 ·6H2 O. Peritoneal lavage fluid from each mouse is removed by syringe and placed in 5 ml plastic test tubes put on ice and volume is noted. Preparation of samples for evaluation by ELISA is as follows: Samples are centrifuged at 800×g for 15 minutes; 1 ml of the supernatant is added to 8 ml ice cold methanol and kept at -70° C. overnight to precipitate protein; and samples are then centrifuged at 800×g for 15 minutes, followed by a drying procedure in a Savant speed vac concentrator. The samples are reconstituted with 1 ml ice cold ELISA buffer and stored at -70° C. until assayed. The assay for eicosanoids (LTC4 and 6-keto-PGF1α) is performed according to conventional ELISA procedures.
Compounds to be tested orally are suspended in 0.5% Tween 80. Compounds to be tested intraperitoneally are suspended in 0.5% methylcellulose in 0.9% saline.
The total metabolite level in lavage fluid/mouse is calculated and the significance is determined by a one-way analysis of variance with LSD comparisons to control (p≤0.05). Drug effects are expressed as a percent change from control values.

[1] = biological target: T1, LTD4 (isolated guinea pig trachea) (Cavia porcellus, UniProt Q2NNR5); test: In vitro isolated guinea pig trachea assay, LTD4 antagonist activity; design: species or system guinea pig (male Hartley); settings: Table VII
T1 construct: the neck is opened and the trachea removed; from tissue; host or cells: tracheal rings of male Hartley guinea pigs
T1 sequence (Q2NNR5 1-340): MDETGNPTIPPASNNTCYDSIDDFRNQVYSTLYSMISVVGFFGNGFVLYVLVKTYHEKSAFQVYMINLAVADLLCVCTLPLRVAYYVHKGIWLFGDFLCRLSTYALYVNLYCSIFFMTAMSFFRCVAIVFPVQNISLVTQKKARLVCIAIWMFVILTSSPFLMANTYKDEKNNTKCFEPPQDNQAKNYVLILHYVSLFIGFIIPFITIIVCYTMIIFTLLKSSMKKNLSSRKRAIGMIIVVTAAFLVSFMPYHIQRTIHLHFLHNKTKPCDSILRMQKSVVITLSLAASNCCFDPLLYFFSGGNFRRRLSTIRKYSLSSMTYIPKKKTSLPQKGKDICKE
Method: The LTD4 antagonist activity of the compounds of the invention is assessed in the in vitro isolated guinea pig trachea assay. This assay is carried out as follows: Male Hartley guinea pigs (350-400 g) are euthanized by a blow to the head, the neck is opened and the trachea removed. The trachea is maintained in aerated physiological salt solution, cleared of connective tissue and fat and cut into rings approximately 2 mm in width (usually containing two cartilaginous segments per ring). Two pieces of silk suture are then passed through the lumen of the tracheal ring and are tied around the cartilage, one on each side of the trachealis muscle. […] The tracheal rings are maintained at 2 g resting tension and equilibrated for 45 minutes (with frequent washing and readjustment of resting tension). […] All responses to LTD4 in an individual tissue are measured as a percentage of the reference contraction of that tissue to carbachol. LTD4 antagonist activity is determined by comparison of the concentration response curves of LTD4 in the presence and absence of antagonist. Assessment of the relative rightward shift of the antagonist treated curve relative to the solvent (control) treated tissue is calculated as a concentration ratio (Eq. A) and used in subsequent calculations to derive an antagonist pKB value (Eqs B and C). […]

[2] = test system: TxB2 synthesis (cyclooxygenase) by rat glycogen-elicited polymorphonuclear leukocytes; test: Inhibition of TxB2 synthesis by rat glycogen-elicited PMN (cyclooxygenase); type: cell-based, rat (female Wistar); settings: read-out: IC50 (TxB2 synthesis)
Method: Rat polymorphonuclear leukocytes (PMNs) are obtained from female Wistar rats (150-200 g) which receive an injection of 6% glycogen (10 ml i.p.). Rats are sacrificed 18-24 hours post injection by CO2 asphyxiation and the elicited cells are harvested by peritoneal lavage using physiological saline (0.9% NaCl). The exudate is centrifuged at 400×g for 10 minutes. The supernatant fluid is discarded and the cell pellet is resuspended to a concentration of 2.0×10^7 cells/ml in HBSS containing Ca^++ and Mg^++ and 10 μM L-cysteine.
To 1 ml aliquots of cell suspension, test drugs or vehicle are added, then preincubated at 37° C. for 10 minutes. A 23187 (1 μM), [^3 H]-AA (3.0 μCi/ml) and unlabeled AA (1 μM) are then added and the samples are further incubated for 10 minutes. The reaction is terminated by centrifugation and pelleting cells. Supernatants are then analyzed by HPLC analysis on a 15 cm×4.6 mm ID supelcosil LC-18 (Supelco)(3M) column, using a two solvent system at a flow rate of 1.4 ml total flow as follows:
Percent solvent changes are accomplished in a linear fashion.
Injections: 150 μl of each supernatant is injected directly onto column and ^3 H arachidonic acid metabolites are monitored using an on-line radioactivity detector (Ramona, IN/US, Fairfield, NJ).
Standards: 10^4 -2.0×10^4 dpm of eicosanoids of interest are injected in 90 μl EtOH cocktail.
Co-chromatography with standard [^3 H] leukotriene B4 (LTB4) in medium of stimulated PMN exposed to drug is compared to that found in medium of stimulated cells exposed to no drug, generating percent inhibition.
Results are expressed as percent inhibition at a given compound dose or as an IC50 value.
In this assay, the procedure of Example 19 is carried out as described. However, in order to determine cyclooxygenase activity, the samples are co-chromatographed with authentic reference [^3 H]-TxB2.
The results are calculated as in Example 19 and presented below: […]

Row | Structure (SMILES) | % Inhibition LTC4 (LTC4; 50 mg/kg p.o.) [%] | % Inhibition LTC4 (LTC4; 100 mg/kg p.o.) [%] | Kb [1] [nM] | IC50 ([2]; rat PMN, acetic acid) [nM] | IC50 ([2]; Rattus norvegicus, Leukocyte) [nM]
1 | O=C(O)Cc1cc(OCc2ccc3ccccc3n2)ccc1Nc1c(Cl)cccc1Cl [Example 2, 2-[(2,6-Dichlorophenyl)amino]-5-(2-quinolylmethoxy)benzene acetic acid] | 47 | 78 | 550 | ~10000 | –
2 | O=C(O)Cc1ccccc1Nc1c(Cl)cccc1Cl [diclofenac, reference compound] | – | – | – | – | 30

Reference: patent US5159085A, “2-anilino phenylacetic acid derivatives as inhibitors of PLA2 and lipoxygenase” (American Home Products Corporation, priority 1991, dated 1992)
